Read-outs that look alike come from different tables or passages of the source.
System: human umbilical vein endothelial cells (HUVEC)
Assay: HUVEC proliferation assay
Assay type: cell-based
Settings: for inhibition at 0.05 µM / inhibition at 0.15 µM / inhibition at 0.001 µM / inhibition at 0.01 µM: Homo sapiens, HUVEC; for inhibition at 0.05 µM: 50 nM; for inhibition at 0.15 µM / % inhibition @ 150 nM: Table I screening results, 150 nM; for inhibition at 0.001 µM: 1 nM; for inhibition at 0.01 µM: 10 nM
Method in brief: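 Exponentially growing HUVEC were serum-starved 24 h (F12K + 1% FBS), pre-treated 1 h with compound (0.1% DMSO final), then stimulated with 6 ng/ml VEGF. Proliferation was read 72 h later by MTT reduction (A595). IC50 came from seven 0.5-log concentrations in triplicate; screens gave % inhibition relative to VEGF-only and starved wells.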

[1] = Inhibition of HUVEC Proliferation, crude combinatorial urea library, read-out: % inhibition @ 50 nM
[2] = crude combinatorial amide library
[3] = Inhibition of HUVEC Proliferation, crude combinatorial urea library, read-out: Inhibition @ 50 nM
[4] = table following Table II (untitled), crude combinatorial library
[5] = table following Table II (untitled), crude combinatorial library, read-out: % inhibition @ 10 nM
[6] = crude combinatorial urea library, read-out: Inhibition of HUVEC Proliferation % inhibition @ 10 nM
[7] = crude combinatorial urea library, read-out: Inhibition of HUVEC Proliferation % inhibition @ 50 nM
[8] = Table II screening results, crude combinatorial amide library
[9] = Table II screening results, crude combinatorial amide library, read-out: % inhibition @ 10 nM

SMILES: COc1cccc(C(=O)Nc2cc(-c3csc(-c4sc(NC(=O)N[C@H]5CC[C@H](O)CC5)nc4N)n3)c(F)cc2F)c1
- inhibition at 0.05 µM [1]: 81%

SMILES: COc1cc(Nc2nc(N)c(-c3nc(-c4cccc(NC(=O)c5cc6c(cc5C)C(C)(C)C(C)CC6(C)C)c4)cs3)s2)cc(OC)c1OC (stereo not drawn)
- inhibition at 0.15 µM [2]: 7%

SMILES: COc1cc(Nc2nc(N)c(-c3nc(-c4cccc(NC(=O)CCOc5ccccc5)c4)cs3)s2)cc(OC)c1OC
- inhibition at 0.15 µM [2]: 11%

SMILES: COc1cccc(C(=O)Nc2cc(-c3noc(-c4sc(NC(=O)NCCN5CCOCC5)nc4N)n3)c(F)cc2F)c1 [drawing 788]
- inhibition at 0.05 µM [3]: 106%

SMILES: COc1cc(Nc2nc(N)c(-c3nc(-c4cc(NC(=O)c5cc(C)[nH]c5C)ccc4C)no3)s2)cc(OC)c1OC
- inhibition at 0.001 µM [4]: -36%
- inhibition at 0.01 µM [5]: 16%

SMILES: COc1cccc(C(=O)Nc2cccc(-c3csc(-c4sc(NC(=O)NCc5ccc(N)cc5)nc4N)n3)c2)c1
- inhibition at 0.01 µM [6]: 4%
- inhibition at 0.05 µM [7]: 35%

SMILES: COc1cccc(C(=O)Nc2cccc(-c3csc(-c4sc(NC(=O)NCC(=O)O)nc4N)n3)c2)c1
- inhibition at 0.01 µM [6]: 42%
- inhibition at 0.05 µM [7]: 52%

SMILES: COc1cc(Nc2nc(N)c(-c3nc(-c4cc(NC(=O)C5CC[C@H]6CC(O)CC[C@@H](C5)C6)ccc4C)no3)s2)cc(OC)c1OC (stereo partly drawn)
- inhibition at 0.001 µM [4]: 7%
- inhibition at 0.01 µM [5]: 20%

SMILES: COc1cccc(C(=O)Nc2cc(-c3csc(-c4sc(NC(=O)NC(CO)CO)nc4N)n3)c(F)cc2F)c1
- inhibition at 0.05 µM [1]: 76%

SMILES: COc1cc(Nc2nc(N)c(-c3nc(-c4cccc(NC(=O)c5cccc6ccccc56)c4)cs3)s2)cc(OC)c1OC
- inhibition at 0.15 µM [2]: 22%

SMILES: CCCN(CCC)CC(=O)Nc1ccc(C)c(-c2noc(-c3sc(Nc4cc(OC)c(OC)c(OC)c4)nc3N)n2)c1
- inhibition at 0.001 µM [4]: 6%
- inhibition at 0.01 µM [5]: 0%

SMILES: COc1cccc(C(=O)Nc2cccc(-c3csc(-c4sc(NC(=O)NC5CC(C)(C)NC(C)(C)C5)nc4N)n3)c2)c1
- inhibition at 0.01 µM [6]: -13%
- inhibition at 0.05 µM [7]: 29%

SMILES: COc1cccc(C(=O)Nc2cc(-c3csc(-c4sc(NC(=O)NCC(F)(F)F)nc4N)n3)c(F)cc2F)c1
- inhibition at 0.05 µM [1]: 2%

SMILES: CCN(CC)CCNC(=O)Nc1nc(N)c(-c2nc(-c3cc(NC(=O)c4cccc(OC)c4)c(F)cc3F)no2)s1
- inhibition at 0.05 µM [3]: 82%

SMILES: COc1cc(Nc2nc(N)c(-c3nc(-c4cccc(NC(=O)c5ccc6c(c5)C(=O)c5ccccc5-6)c4)cs3)s2)cc(OC)c1OC
- inhibition at 0.15 µM [2]: -4%

SMILES: COc1cc(Nc2nc(N)c(-c3nc(-c4cccc(NC(=O)Cc5ccccc5Cl)c4)cs3)s2)cc(OC)c1OC
- inhibition at 0.15 µM [2]: 34%

SMILES: C=CCC(=O)Nc1ccc(C)c(-c2noc(-c3sc(Nc4cc(OC)c(OC)c(OC)c4)nc3N)n2)c1
- inhibition at 0.001 µM [4]: 35%
- inhibition at 0.01 µM [5]: 72%

SMILES: COc1cc(Nc2nc(N)c(-c3nc(-c4cc(NC(=O)Cc5c(F)cccc5F)ccc4C)no3)s2)cc(OC)c1OC
- inhibition at 0.001 µM [4]: -23%
- inhibition at 0.01 µM [5]: 42%

SMILES: COc1cccc(CC(=O)Nc2cccc(-c3csc(-c4sc(Nc5cc(OC)c(OC)c(OC)c5)nc4N)n3)c2)c1
- inhibition at 0.15 µM [2]: 12%

SMILES: COc1cc(Nc2nc(N)c(-c3nc(-c4cccc(NC(=O)CCc5cccnc5)c4)cs3)s2)cc(OC)c1OC
- % inhibition @ 150 nM [2]: 0%

SMILES: CNC(=O)Nc1nc(N)c(-c2nc(-c3cccc(NC(=O)c4ccc(C(C)=O)s4)c3)cs2)s1
- inhibition at 0.001 µM [8]: 49%
- inhibition at 0.01 µM [9]: 97%

SMILES: CNC(=O)CNC(=O)Nc1nc(N)c(-c2nc(-c3cc(NC(=O)c4cccc(OC)c4)c(F)cc3F)no2)s1
- inhibition at 0.05 µM [3]: 51%

SMILES: COc1ccc(CCC(=O)Nc2cccc(-c3csc(-c4sc(Nc5cc(OC)c(OC)c(OC)c5)nc4N)n3)c2)cc1OC
- inhibition at 0.15 µM [2]: 23%

SMILES: COc1cccc(C(=O)Nc2cc(-c3csc(-c4sc(NC(=O)NCCC(=O)O)nc4N)n3)c(F)cc2F)c1
- inhibition at 0.05 µM [1]: 66%

SMILES: COc1cccc(C(=O)Nc2cccc(-c3csc(-c4sc(NC(=O)NCCNc5ccccc5)nc4N)n3)c2)c1
- inhibition at 0.01 µM [6]: 28%
- inhibition at 0.05 µM [7]: 62%

SMILES: COc1cccc(C(=O)Nc2cc(-c3noc(-c4sc(NC(=O)NCCCN5CCOCC5)nc4N)n3)c(F)cc2F)c1
- inhibition at 0.05 µM [3]: 80%

SMILES: COc1cccc(C(=O)Nc2cc(-c3csc(-c4sc(NC(=O)NCCNc5ccccc5)nc4N)n3)c(F)cc2F)c1
- inhibition at 0.05 µM [1]: 60%

SMILES: COc1cc(Nc2nc(N)c(-c3nc(-c4cccc(NC(=O)c5csc(-c6cccnc6)n5)c4)cs3)s2)cc(OC)c1OC
- inhibition at 0.15 µM [2]: 38%

SMILES: COc1cc(Nc2nc(N)c(-c3nc(-c4cccc(NC(=O)C(C5CCCCC5)C5CCCCC5)c4)cs3)s2)cc(OC)c1OC
- % inhibition @ 150 nM [2]: 0%

SMILES: CCN1CC(NC(=O)Nc2nc(N)c(-c3nc(-c4cccc(NC(=O)c5cccc(OC)c5)c4)cs3)s2)CN1CC
- inhibition at 0.01 µM [6]: -24%
- inhibition at 0.05 µM [7]: 45%

SMILES: COc1cc(Nc2nc(N)c(-c3nc(-c4cccc(NC(=O)c5ccc(-c6ccccc6)cc5)c4)cs3)s2)cc(OC)c1OC
- inhibition at 0.15 µM [2]: -32%

SMILES: COc1cccc(C(=O)Nc2cccc(-c3csc(-c4sc(NC(=O)NCc5ccccc5)nc4N)n3)c2)c1
- inhibition at 0.01 µM [6]: -11%
- inhibition at 0.05 µM [7]: 114%

SMILES: COc1cc(Nc2nc(N)c(-c3nc(-c4cccc(NC(=O)c5ccc6c(c5)C(=O)NC6=O)c4)cs3)s2)cc(OC)c1OC
- inhibition at 0.15 µM [2]: -6%

SMILES: COc1cccc(C(=O)Nc2cccc(-c3csc(-c4sc(NC(=O)NCC5CCCO5)nc4N)n3)c2)c1 (stereo not drawn)
- inhibition at 0.01 µM [6]: 46%
- inhibition at 0.05 µM [7]: 87%

SMILES: COc1cccc(C(=O)Nc2cc(-c3noc(-c4sc(NC(=O)NCc5ccc(N(C)C)cc5)nc4N)n3)c(F)cc2F)c1
- inhibition at 0.05 µM [3]: 48%

SMILES: COc1cc(Nc2nc(N)c(-c3nc(-c4cccc(NC(=O)Cc5ccc(Cl)c(Cl)c5)c4)cs3)s2)cc(OC)c1OC
- inhibition at 0.15 µM [2]: -5%

SMILES: COc1cc(Nc2nc(N)c(-c3nc(-c4cccc(NC(=O)c5ccc6[nH]ccc6c5)c4)cs3)s2)cc(OC)c1OC
- inhibition at 0.15 µM [2]: 15%

SMILES: COc1cccc(C(=O)Nc2cccc(-c3csc(-c4sc(NC(=O)NCCN(C)C)nc4N)n3)c2)c1
- inhibition at 0.01 µM [6]: -11%
- inhibition at 0.05 µM [7]: 46%

SMILES: COc1cccc(C(=O)Nc2cccc(-c3csc(-c4sc(NC(=O)NCC#N)nc4N)n3)c2)c1
- inhibition at 0.01 µM [6]: -3%
- inhibition at 0.05 µM [7]: 3%

SMILES: COc1cccc(C(=O)Nc2cc(-c3noc(-c4sc(NC(=O)NCC(=O)NO)nc4N)n3)c(F)cc2F)c1
- inhibition at 0.05 µM [3]: -12%

SMILES: COc1cc(Nc2nc(N)c(-c3nc(-c4cc(NC(=O)CCc5ccc(C)cc5)ccc4C)no3)s2)cc(OC)c1OC
- inhibition at 0.001 µM [4]: -18%
- inhibition at 0.01 µM [5]: 23%

SMILES: COc1cc(Nc2nc(N)c(-c3nc(-c4cccc(NC(=O)CCc5ccc(C)cc5)c4)cs3)s2)cc(OC)c1OC
- inhibition at 0.15 µM [2]: 25%

SMILES: COc1cc(Nc2nc(N)c(-c3nc(-c4cccc(NC(=O)c5cccs5)c4)cs3)s2)cc(OC)c1OC
- inhibition at 0.15 µM [2]: 29%

SMILES: COc1cc(Nc2nc(N)c(-c3nc(-c4cccc(NC(=O)c5ccc(C(C)C)cc5)c4)cs3)s2)cc(OC)c1OC [drawing 1003]
- % inhibition @ 150 nM (crude combinatorial amide library, 0.15 µM): 17%

SMILES: COc1cc(Nc2nc(N)c(-c3nc(-c4cccc(NC(=O)CCC5CCCCC5)c4)cs3)s2)cc(OC)c1OC
- inhibition at 0.15 µM [2]: 8%

SMILES: COc1cc(Nc2nc(N)c(-c3nc(-c4cccc(NC(=O)Cc5cc(F)ccc5F)c4)cs3)s2)cc(OC)c1OC
- inhibition at 0.15 µM [2]: 49%

SMILES: COc1cc(Nc2nc(N)c(-c3nc(-c4cccc(NC(=O)CNC(=O)c5ccccc5)c4)cs3)s2)cc(OC)c1OC
- inhibition at 0.15 µM [2]: -26%

SMILES: CCC(C(=O)Nc1ccc(C)c(-c2noc(-c3sc(Nc4cc(OC)c(OC)c(OC)c4)nc3N)n2)c1)c1ccccc1C (stereo not drawn)
- inhibition at 0.001 µM [4]: -14%
- inhibition at 0.01 µM [5]: 13%

SMILES: COCCNC(=O)Nc1nc(N)c(-c2nc(-c3cc(NC(=O)c4cccc(OC)c4)c(F)cc3F)no2)s1
- inhibition at 0.05 µM [3]: 53%

SMILES: COc1cccc(C(=O)Nc2cc(-c3csc(-c4sc(NC(=O)NCC(C)(C)N)nc4N)n3)c(F)cc2F)c1
- inhibition at 0.05 µM [1]: 73%

SMILES: COc1cc(Nc2nc(N)c(-c3nc(-c4cccc(NC(=O)c5ccc6c(c5)OC(F)(F)O6)c4)cs3)s2)cc(OC)c1OC
- inhibition at 0.15 µM [2]: 72%

SMILES: COc1cc(Nc2nc(N)c(-c3nc(-c4cccc(NC(=O)/C=C/c5ccco5)c4)cs3)s2)cc(OC)c1OC
- % inhibition @ 150 nM [2]: 0%

SMILES: COc1cc(Nc2nc(N)c(-c3nc(-c4cccc(NC(=O)C5Cc6ccccc65)c4)cs3)s2)cc(OC)c1OC (stereo not drawn)
- inhibition at 0.15 µM [2]: 56%

SMILES: COc1cccc(C(=O)Nc2cc(-c3csc(-c4sc(NC(=O)NCc5cccnc5)nc4N)n3)c(F)cc2F)c1
- inhibition at 0.05 µM [1]: 102%

SMILES: CNC(=O)Nc1nc(N)c(-c2nc(-c3cccc(NC(=O)c4cccc5[nH]ccc45)c3)cs2)s1
- inhibition at 0.001 µM [8]: -3%
- inhibition at 0.01 µM [9]: 2%

SMILES: COc1cc(Nc2nc(N)c(-c3nc(-c4cccc(NC(=O)C(C)c5ccc(CC(C)C)cc5)c4)cs3)s2)cc(OC)c1OC (stereo not drawn)
- % inhibition @ 150 nM [2]: 0%

SMILES: COc1cccc(C(=O)Nc2cc(-c3csc(-c4sc(NC(=O)NCCCN5CCOCC5)nc4N)n3)c(F)cc2F)c1
- inhibition at 0.05 µM [1]: 81%

SMILES: CNC(=O)Nc1nc(N)c(-c2nc(-c3cccc(NC(=O)c4ccccc4)c3)cs2)s1
- inhibition at 0.001 µM [8]: -8%
- inhibition at 0.01 µM [9]: -40%

SMILES: COc1cc(Nc2nc(N)c(-c3nc(-c4cccc(NC(=O)C5=C(C)c6ccccc6C5)c4)cs3)s2)cc(OC)c1OC
- inhibition at 0.15 µM [2]: 29%

SMILES: COc1cccc(C(=O)Nc2cccc(-c3csc(-c4sc(NC(=O)NCCN5CCOCC5)nc4N)n3)c2)c1
- inhibition at 0.01 µM [6]: 1%
- inhibition at 0.05 µM [7]: 121%

SMILES: COc1cccc(C(=O)Nc2cc(-c3csc(-c4sc(NC(=O)NCCCCCCN(C)C)nc4N)n3)c(F)cc2F)c1
- inhibition at 0.05 µM [1]: 83%
